Where a name gives a salt, the structure may show the parent alone.
Biological target: human GPR40 (Homo sapiens, UniProt O14842)
Assay: FDSS-based intracellular calcium assay (Human GRP40 in vitro assay)
Format: cell-based
Parameters: 3xFLAG; expressed in transfected cells
Conditions: cells expressing GPR40, intracellular Ca2+ response, FDSS reader; read-out: hGPR40 EC50
Method in brief: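 GPR40-expressing cells, plated overnight in serum-free phenol red-free DMEM, loaded with Fluo-3 in HBSS with 1.7 mM probenecid for 30 min at 37° C. Compounds in DMSO, diluted in assay buffer, added as 3× solutions; intracellular Ca^2+ response read on FDSS.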

human GPR40, sequence (O14842 whole entry): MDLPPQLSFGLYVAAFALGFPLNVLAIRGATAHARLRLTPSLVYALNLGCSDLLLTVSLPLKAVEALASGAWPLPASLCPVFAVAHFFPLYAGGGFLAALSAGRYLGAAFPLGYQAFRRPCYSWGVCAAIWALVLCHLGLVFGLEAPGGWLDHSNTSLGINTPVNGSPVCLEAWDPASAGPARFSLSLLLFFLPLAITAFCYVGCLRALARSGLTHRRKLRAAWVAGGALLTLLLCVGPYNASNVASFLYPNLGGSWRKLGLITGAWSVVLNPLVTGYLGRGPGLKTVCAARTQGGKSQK

Compound	EC50 [nM]
COc1cc(N2CCC(Oc3ccc(N4C[C@H](OC)C[C@@H]4CC(=O)O)cc3)CC2)c(Cl)cn1 [Example 87, 2-((2R,4R)-1-(4-((1-(5-Chloro-2-methoxypyridin-4-yl)piperidin-4-yl)oxy)phenyl)-4-methoxypyrrolidin-2-yl)acetic acid, TFA]	350
CCOc1ccc(F)c(N2CCC(Oc3ccc(N4C[C@H](OC)[C@@H](CC)[C@@H]4CC(=O)O)cc3)CC2)c1 [Example 88, 2-((2S,3S,4R)-1-(4-((1-(5-Ethoxy-2-fluorophenyl)piperidin-4-yl)oxy)phenyl)-3-ethyl-4-methoxypyrrolidin-2-yl)acetic acid, TFA]	250
CCOc1ccc(F)c(N2CCC(Oc3ccc(N4C[C@H](OC)[C@@H](C(C)C)[C@@H]4CC(=O)O)cc3)CC2)c1 [Example 89, 2-((2S,3S,4R)-1-(4-((1-(5-Ethoxy-2-fluorophenyl)piperidin-4-yl)oxy)phenyl)-3-isopropyl-4-methoxypyrrolidin-2-yl)acetic acid, TFA]	320
CCOc1ccc(F)c(N2CCC(Oc3ccc(N4C[C@H](OC)[C@@H](C5CCC5)[C@@H]4CC(=O)O)cc3)CC2)c1 [Example 92, 2-((2S,3S,4R)-3-Cyclobutyl-1-(4-((1-(5-ethoxy-2-fluorophenyl)piperidin-4-yl)oxy)phenyl)-4-methoxypyrrolidin-2-yl)acetic acid, TFA]	3700
COc1cc(N2CCC(Oc3ccc(N4C[C@H](OC)[C@@H](C)[C@@H]4CC(=O)O)cn3)CC2)c(Cl)cn1 [Example 97, 2-((2S,3S,4R)-1-(6-((1-(5-Chloro-2-methoxypyridin-4-yl)piperidin-4-yl)oxy)pyridin-3-yl)-4-methoxy-3-methylpyrrolidin-2-yl)acetic acid]	110
CCOc1ccc(F)c(N2CCC(Oc3ccc(N4C[C@H](OC)[C@@H](C)[C@@H]4CC(=O)O)cc3F)C(C)C2)c1 (stereo partly drawn) [Example 100, 2-((2S,3S,4R)-1-(4-(((3,4-trans)-1-(5-Ethoxy-2-fluorophenyl)-3-methylpiperidin-4-yl)oxy)-3-fluorophenyl)-4-methoxy-3-methylpyrrolidin-2-yl)acetic acid]	110
CCOc1ccc(F)c(N2CCC(Oc3ccc(N4C[C@H](OC)[C@@H](C)[C@@H]4CC(=O)O)cc3F)CC2)c1 [Example 101, 2-((2S,3S,4R)-1-(4-((1-(5-Ethoxy-2-fluorophenyl)piperidin-4-yl)oxy)-3-fluorophenyl)-4-methoxy-3-methylpyrrolidin-2-yl)acetic acid]	180
CCOc1ccc(F)c(N2CCC(Oc3ccc(N4CC[C@@H](C)[C@@H]4CC(=O)O)cc3)CC2)c1 [Example 104, 2-((2S,3R)-1-(4-((1-(5-Ethoxy-2-fluorophenyl)piperidin-4-yl)oxy)phenyl)-3-methylpyrrolidin-2-yl)acetic acid, TFA]	250
COc1cc(N2CCC(Oc3ccc(N4C[C@H](C)[C@@H](C)[C@@H]4CC(=O)O)cn3)C(C)C2)c(Cl)cn1 (stereo partly drawn) [Example 106, 2-((2S,3R,4R)-1-(6-(((3,4-trans)-1-(5-Chloro-2-methoxypyridin-4-yl)-3-methylpiperidin-4-yl)oxy)pyridin-3-yl)-3,4-dimethylpyrrolidin-2-yl)acetic acid]	170
COc1cc(N2CCC(Oc3ccc(N4C[C@H](C)C[C@@H]4CC(=O)O)cn3)C(C)C2)c(Cl)cn1 (stereo partly drawn) [Example 110, 2-((2R,4R)-1-(6-(((3,4-trans)-1-(5-Chloro-2-methoxypyridin-4-yl)-3-methylpiperidin-4-yl)oxy)pyridin-3-yl)-4-methylpyrrolidin-2-yl)acetic acid]	220
COc1cc(N2CCC(Oc3ccc(N4C[C@H](OC)[C@@H](C)[C@@H]4CC(=O)O)c(F)c3)C(C)C2)c(Cl)cn1 (stereo partly drawn) [Example 111, 2-((2S,3S,4R)-1-(4-(((3,4-trans)-1-(5-Chloro-2-methoxypyridin-4-yl)-3-methylpiperidin-4-yl)oxy)-2-fluorophenyl)-4-methoxy-3-methylpyrrolidin-2-yl)acetic acid]	110
COc1cc(N2CCC(Oc3ccc(N4C[C@H](OC)[C@@H](C)[C@@H]4CC(=O)O)c(F)c3)CC2)c(Cl)cn1 [Example 112, 2-((2S,3S,4R)-1-(4-((1-(5-Chloro-2-methoxypyridin-4-yl)piperidin-4-yl)oxy)-2-fluorophenyl)-4-methoxy-3-methylpyrrolidin-2-yl)acetic acid]	130
CCOc1ccc(F)c(N2CCC(Oc3ccc(N4C[C@H](OC)[C@@H](C)[C@@H]4CC(=O)O)c(F)c3)CC2)c1 [Example 114, 2-((2S,3S,4R)-1-(4-((1-(5-Ethoxy-2-fluorophenyl)piperidin-4-yl)oxy)-2-fluorophenyl)-4-methoxy-3-methylpyrrolidin-2-yl)acetic acid]	320
CCOc1ccc(F)c(N2CCC(Oc3ccc(N4C[C@H](Oc5ccc(C#N)cc5)CC4CC(=O)O)cc3)CC2)c1 (stereo partly drawn) [Example 128, 2-((4R)-4-(4-Cyanophenoxy)-1-(4-((1-(5-ethoxy-2-fluorophenyl)piperidin-4-yl)oxy)phenyl)pyrrolidin-2-yl)acetic acid, HCl]	1300
CCOc1ccc(F)c(N2CCC(Oc3ccc(N4C[C@H](C#N)C[C@@H]4CC(=O)O)cc3)CC2)c1 [Example 130, 2-((2R,4R)-4-Cyano-1-(4-((1-(5-ethoxy-2-fluorophenyl)piperidin-4-yl)oxy)phenyl)pyrrolidin-2-yl)acetic acid, TFA]	2100
COc1cc(N2CCC(Oc3ccc(N4C[C@@H](OC)[C@H](C)[C@H]4CC(=O)O)cc3)C(C)C2)c(Cl)cn1 (stereo partly drawn) [Example 131, 2-((2R,3R,4S)-1-(4-(((3,4-trans)-1-(5-Chloro-2-methoxypyridin-4-yl)-3-methylpiperidin-4-yl)oxy)phenyl)-4-methoxy-3-methylpyrrolidin-2-yl)acetic acid]	4700

Further lines, results first:

EC50 [nM]	Compound
4700	COc1cc(N2CCC(Oc3ccc(N4C[C@H](OC)C[C@@H]4CC(=O)O)cc3)CC2)c2nccn2n1 [Example 86, 2-((2R,4R)-4-Methoxy-1-(4-((1-(6-methoxyimidazo[1,2-b]pyridazin-8-yl)piperidin-4-yl)oxy)phenyl)pyrrolidin-2-yl)acetic acid, TFA]
190	CCOc1ccc(F)c(N2CCC(Oc3ccc(N4C[C@H](OC)[C@@H](C5CC5)[C@@H]4CC(=O)O)cc3)CC2)c1 [Example 90, 2-((2S,3S,4R)-3-Cyclopropyl-1-(4-((1-(5-ethoxy-2-fluorophenyl)piperidin-4-yl)oxy)phenyl)-4-methoxypyrrolidin-2-yl)acetic acid, TFA]
2300	COc1cc(N2CCC(Oc3ccc(N4C[C@H](OC)C[C@@H]4CC(=O)O)cc3)C(CC#N)C2)c(Cl)cn1 (stereo partly drawn) [Example 93, 2-((2R,4R)-1-(4-(((3,4-trans)-1-(5-Chloro-2-methoxypyridin-4-yl)-3-(cyanomethyl)piperidin-4-yl)oxy)phenyl)-4-methoxypyrrolidin-2-yl)acetic acid, TFA]
3400	COc1cc(N2CCC(Oc3ccc(N4C[C@H](OC)C[C@@H]4CC(=O)O)cc3)C(Cn3cnnn3)C2)c(Cl)cn1 (stereo partly drawn) [Example 94, 2-((2R,4R)-1-(4-(((3,4-trans)-3-((1H-Tetrazol-1-yl)methyl)-1-(5-chloro-2-methoxypyridin-4-yl)piperidin-4-yl)oxy)phenyl)-4-methoxypyrrolidin-2-yl)acetic acid, TFA]
510	CCOc1ccc(F)c(N2CCC(Oc3ccc(N4C[C@H](OC)[C@@H](C)[C@@H]4CC(=O)O)cn3)CC2)c1 [Example 95, 2-((2S,3S,4R)-1-(6-((1-(5-Ethoxy-2-fluorophenyl)piperidin-4-yl)oxy)pyridin-3-yl)-4-methoxy-3-methylpyrrolidin-2-yl)acetic acid, TFA]
120	CCCCCO[C@@H]1C[C@H](CC(=O)O)N(c2ccc(OC3CCN(c4cc(OCC)ccc4F)CC3)cc2)C1 [Example 103, 2-((2R,4R)-1-(4-((1-(5-Ethoxy-2-fluorophenyl)piperidin-4-yl)oxy)phenyl)-4-(pentyloxy)pyrrolidin-2-yl)acetic acid, TFA]
60	COc1cc(N2CCC(Oc3ccc(N4CC[C@@H](C)[C@@H]4CC(=O)O)cn3)C(C)C2)c(Cl)cn1 (stereo partly drawn) [Example 105, 2-((2S,3R)-1-(6-(((3,4-trans)-1-(5-Chloro-2-methoxypyridin-4-yl)-3-methylpiperidin-4-yl)oxy)pyridin-3-yl)-3-methylpyrrolidin-2-yl)acetic acid]
160	CCOc1ccc(F)c(N2CCC(Oc3ccc(N4C[C@H](OC)C[C@@H]4CC(=O)O)cc3)CC2)c1 [Example 107, 2-((2R,4R)-1-(4-((1-(5-Ethoxy-2-fluorophenyl)piperidin-4-yl)oxy)phenyl)-4-methoxypyrrolidin-2-yl)acetic acid, TFA]
230	COc1cc(N2CCC(Oc3ccc(N4CC(C)(C)C[C@@H]4CC(=O)O)cn3)C(C)C2)c(Cl)cn1 (stereo partly drawn) [Example 109, 2-((R)-1-(6-(((3,4-trans)-1-(5-Chloro-2-methoxypyridin-4-yl)-3-methylpiperidin-4-yl)oxy)pyridin-3-yl)-4,4-dimethylpyrrolidin-2-yl)acetic acid, TFA]
290	CCOc1ccc(F)c(N2CCC(Oc3ccc(N4C[C@H](OC)[C@@H](C)[C@@H]4CC(=O)O)c(F)c3)C(C)C2)c1 (stereo partly drawn) [Example 113, 2-((2S,3S,4R)-1-(4-(((3,4-trans)-1-(5-Ethoxy-2-fluorophenyl)-3-methylpiperidin-4-yl)oxy)-2-fluorophenyl)-4-methoxy-3-methylpyrrolidin-2-yl)acetic acid]
240	CCOc1ccc(F)c(N2CCC(Oc3ccc(N4C[C@H](c5cccc(C(F)(F)F)c5)C[C@@H]4CC(=O)O)cc3)CC2)c1 [Example 122, 2-((2R,4S)-1-(4-((1-(5-Ethoxy-2-fluorophenyl)piperidin-4-yl)oxy)phenyl)-4-(3-(trifluoromethyl)phenyl)pyrrolidin-2-yl)acetic acid, TFA]
810	CCOc1ccc(F)c(N2CCC(Oc3ccc(N4C[C@H](c5cnn(C)c5)C[C@@H]4CC(=O)O)cc3)CC2)c1 [Example 126, 2-((2R,4S)-1-(4-((1-(5-Ethoxy-2-fluorophenyl)piperidin-4-yl)oxy)phenyl)-4-(1-methyl-1H-pyrazol-4-yl)pyrrolidin-2-yl)acetic acid, TFA]

Source: patent US9714231B2, “Pyrrolidine GPR40 modulators” (BRISTOL-MYERS SQUIBB COMPANY, priority 2012, dated 2017)
